Publication PMC8362065, “Easily Available, Amphiphilic Diiron Cyclopentadienyl Complexes Exhibit in Vitro Anticancer Activity in 2D and 3D Human Cancer Cells through Redox Modulation Triggered by CO Release” (Chemistry (Weinheim an Der Bergstrasse, Germany), 2021)

Tests used:
[1] = test system: Human breast (MCF‐7) carcinoma cell line; experiment: MTT assay, 2D cell culture; format: cell-based; details: 72 h
Method: (§1) Compounds [2B]BF4, [2C]CF3SO3, [2D]CF3SO3 and [3F]CF3SO3 were dissolved in water while the other compounds were dissolved in the minimum DMSO amount prior to cell culture testing. A calculated amount of the stock drug DMSO solution was added to the cell culture media to reach a final maximum DMSO concentration of 0.5 %, which had no effects on cell viability.
(§2) Cell cultures. Human colon (HCT‐15), pancreatic (PSN‐1) and breast (MCF‐7) carcinoma cell lines along with human melanoma cells (A375) were obtained from American Type Culture Collection (ATCC, Rockville, MD). Embryonic kidney HEK293 cells were obtained from the European Collection of Cell Cultures (ECACC, Salisbury, UK). Human ovarian 2008 cancer cells were kindly provided by Prof. G. Marverti (Dept. of Biomedical Science of Modena University, Italy). MCF‐7 ADR cells were kindly provided by Prof. N. Colabufo (Dept. Pharmacy, University of Bari, Italy). Cell lines were maintained in the logarithmic phase at 37 °C in a 5 % CO2 atmosphere using the following culture media containing 10 % fetal calf serum (Euroclone, Milan, Italy), antibiotics (50 units/mL penicillin and 50 μg/mL streptomycin) and 2 mM L‐glutamine: i) RPMI‐1640 medium (Euroclone, Milan, Italy) for PSN‐1, 2008, HCT‐15, MCF‐7 and MCF‐7 ADR cells; ii) DMEM for A375 and HEK293 cells.
(§3) MTT assay. The growth inhibitory effect towards tumour cells was evaluated by means of MTT assay as previously described.[57] Briefly, 3–8×10^3 cells/well, dependent upon the growth characteristics of the cell line, were seeded in 96‐well microplates in growth medium (100 μL). After 24 h, the medium was removed and replaced with a fresh one containing the compound to be studied at the appropriate concentration. Triplicate cultures were established for each treatment. After 24 or 72 h, each well was treated with 10 μL of a 5 mg/mL MTT saline solution, and following 5 h of incubation, 100 μL of a sodium dodecyl sulfate (SDS) solution in HCl 0.01 M were added. After an overnight incubation, cell growth inhibition was detected by measuring the absorbance of each well at 570 nm using a Bio‐Rad 680 microplate reader. Mean absorbance for each drug dose was expressed as a percentage of the control untreated well absorbance and plotted against drug concentration. IC50 values, the drug concentrations that reduce the mean absorbance at 570 nm to 50 % of those in the untreated control wells, were calculated by the four‐parameter logistic (4‐PL) model. Evaluation was based on means from at least four independent experiments.

MCF‐7 ADR cells = experiment: MTT assay, multidrug-resistant cancer cell model overexpressing P-gp; format: cell-based, human
Method: The antiproliferative activity was also investigated in a multidrug‐resistant cancer cell model overexpressing P‐gp (MCF‐7 ADR cells).
as §1, §2, §3

[2] = test system: 3D cell spheroids of human ovarian (2008) cancer cells; experiment: Acid phosphatase (APH) assay, 3D spheroid culture; format: cell-based; details: 2008 cell line
[3] = test system: Human colon (HCT‐15) carcinoma cell line; experiment: MTT assay, 2D cell culture; format: cell-based; details: HCT‐15 cells, 72 h
Method: as §1, §2, §3

[4] = test system: human melanoma cells (A375); experiment: MTT assay, 2D cell culture; format: cell-based; details: 72 h
Method: as §1, §2, §3

[5] = test system: Human pancreatic (PSN‐1) carcinoma cell line; experiment: MTT assay, 2D cell culture; format: cell-based; details: PSN‐1 cells, 72 h, read-out: IC50 (μM)±SD
Method: as §1, §2, §3

[6] = test system: Human ovarian 2008 cancer cells; experiment: MTT assay, 2D cell culture; format: cell-based; details: 2008 cells, 72 h
Method: as §1, §2, §3

[7] = test system: Embryonic kidney HEK293 cells; experiment: MTT assay, noncancerous cell line; format: cell-based, human; details: 72 h
Method: As one of the main drawbacks of chemotherapeutics is the toxic effect toward noncancerous cells, we measured the cytotoxicity of tested complexes against a noncancerous cell line (HEK293) and calculated the selectivity index (SI, defined as the ratio between the IC50 value in noncancerous cells and the corresponding average IC50 value related to cancer cells; Table 5).
as §1, §2, §3

[8] = test system: 3D cell spheroids of human pancreatic (PSN‐1) cancer cells; experiment: Acid phosphatase (APH) assay, 3D spheroid culture; format: cell-based; details: PSN‐1 spheroids, 72 h, APH test
Source text: (§4) The remarkable cell‐killing effect observed in 2D cultured cells prompted us to evaluate the in vitro antitumor activity of the complexes on 3D cell cultures. Differently from 2D monolayer culture, 3D spheroid cell culture systems comprise cancer cells in various cell growth stages. Consequently, the multicellular cancer spheroid model is recognized to better reflect the tumour mass in vivo regarding drug permeation, cell interactions, gene expression, hypoxia and nutrient gradients with respect to monolayer cell cultures, making 3D models more predictive than conventional 2D monolayer cultures in screening antitumor drugs.[38] Table 6 summarizes the IC50 values obtained after treatment of 3D cell spheroids of human ovarian (2008) and pancreatic (PSN‐1) cancer cells with the diiron complexes and cisplatin.
(§5) Spheroid cultures. Spheroid cultures were obtained by seeding 2.5×10^3 cells/well in round bottom non‐tissue culture treated 96 well‐plate (Greiner Bio‐one, Kremsmünster, Austria) in phenol red free RPMI‐1640 medium (Sigma Chemical Co.), containing 10 % FCS and supplemented with 20 % methyl cellulose stock solution.
(§6) Acid phosphatase (APH) assay. An APH modified assay was used for determining cell viability in 3D spheroids, as previously described.[58] IC50 values were calculated with a four‐parameter logistic (4‐PL) model. All the values are the means ± SD of not less than four independent experiments.

[9] = test system: 3D cell spheroids of human ovarian (2008) cancer cells; experiment: Acid phosphatase (APH) assay, 3D spheroid culture; format: cell-based; details: 2008 spheroids, 72 h, APH test
Source text: as §4, §5, §6

[10] = Solubility pattern of the isolated compound (qualitative); format: physicochemical; details: isolated solid
[11] = Octanol/water partition coefficient, shake-flask method and UV/Vis
Method: Octanol/water partition coefficients (log Pow ). Partition coefficients (P ow; IUPAC: K D partition constant[53]), defined as P ow=corg/caq, where corg and caq are molar concentrations of the selected compound in the organic and aqueous phase, respectively, were determined by the shake‐flask method and UV/Vis measurements.[[16a], [54]] Deionized water and octan‐1‐ol were vigorously stirred for 24 h, to enable saturation of both phases, then separated by centrifugation. A stock solution of the selected Fe compound (ca. 2 mg) was prepared by first adding acetone (50 μL, to help solubilization), followed by water‐saturated octanol (2.5 mL). The solution was diluted with water‐saturated octanol (ca. 1 : 3 v/v ratio, cFe2 ≈10^−4 M, so that 1.5≤A≤2.0 at λ max) and its UV/Vis spectrum was recorded ( A0/org ). An aliquot of the solution (V org=1.2 mL) was transferred into a test tube and octanol‐saturated water (V org=V aq=1.2 mL) was added. The mixture was vigorously stirred for 30 min at 21 °C then centrifuged (RCF 805, 5 min; Hettich EBA 8G). The UV/Vis spectrum of the organic phase was recorded ( Af/org ) and the partition coefficient was calculated as P ow= Af/org /( A0/org g− Af/org ) where A0/org and Af/org are the absorbance in the organic phase before and after partition with the aqueous phase, respectively.[53] For [2B]BF4, [2C]Cl and [3F]CF3SO3 an inverse procedure was followed, starting from a solution of the compound in octanol‐saturated water. The partition coefficient was calculated as P ow=( A0/aq − Af/aq )/ Af/aq where A0/aq and Af/aq are the absorbance in the aqueous phase before and after partition with the organic phase, respectively.

[12] = Stability in D2O, D2O/CD3OD and DMSO-d6/D2O at 37 °C by 1H NMR; format: physicochemical; details: D2O
Method: A detailed study on the behaviour of a selection of the diiron complexes in aqueous media was undertaken. Experimental procedures are provided in the Experimental Section and in the Supporting Information, with data collected in Tables 3, S3 and S4. […] The octanol/water partition coefficients (log P ow) were measured by a UV/Vis method and fall in between 0 and −1, reflecting an amphiphilic or slightly hydrophilic character. […] Conversely, those complexes with aromatic groups (i. e., 1H‐indol‐6‐yl, 2‐naphthyl and bis‐benzyl in [2A]^+, [3G]^+, [4G]^+ and [5H]^+) are less soluble in water and display increased affinity for n‐octanol (log P ow≈0). The diiron compounds are inert in aqueous solution at room temperature, and undergo a slow degradation at 37 °C. Under such conditions, a variable amount (50 to 86 %; Table S3) of the starting material was detected by ^1H NMR in D2O or D2O/CD3OD mixtures after 72 h.[33] During this time, the precipitation of a brown solid was observed, which in one case (from a [2C]CF3SO3 solution) was separated and identified as γ‐Fe2O3 by Raman analysis. In addition, headspace GC analyses performed on 5 % MeOH aqueous solutions of the compounds maintained at 37 °C allowed the identification and quantitation of the carbon monoxide released over a 48 h period (Table S4). These facts indicate that the thermal degradation process in aqueous solution leads to the progressive disassembly of the organometallic scaffold.[16] The presumed, controlled release of the iron centres (converted to iron oxide, see above) and carbon monoxide are two aspects that deserve attention with reference to the biological activity: note that the decay of ferrocene drug candidates into Fe^II ions was previously associated to their cytotoxicity,[34] while the activity of various iron carbonyl complexes was correlated to CO dissociation in the physiological media.[35]
(§7) Stability in water (D2O) and cell culture medium. The procedures are described in the Supporting Information, and data are collected in Table S3.
(§8) Table S3. Stability of diiron complexes in D2O, D2O/CD3OD, DMSO-d6/D2O and cell culture medium (DMEM-
(§9) d/CD3OD) solution at 37 °C calculated by 1H NMR (Me2SO2 internal standard).
(§10) % starting material (72 h) % starting material
(§11) Compound D O D O/CD OD DMSO-d /D O DMEM-d
(§12) [a] X = I for the stability in D 2O, X = CF3SO3 for the stability in cell culture medium. [b] Stability in D 2O and […]

[13] = Stability in cell culture medium (DMEM) at 37 °C by 1H NMR; format: physicochemical; details: DMEM-d (6.6 % CD3OD)
Method: Next, the stability of the diiron compounds in a cell culture medium (DMEM) solution at 37 °C, over a shorter time range (24 h), was assessed by ^1H NMR.
as §7, §8, §9, §10, §11, §12

COc1cccc2c1C(=O)c1c(O)c3c(c(O)c1C2=O)C[C@@](O)(C(=O)CO)C[C@@H]3O[C@H]1C[C@H](N)[C@H](O)[C@H](C)O1 [doxorubicin, reference compound]
IC50 ([1]; Homo sapiens, MCF7, MCF‐7 cells): 0.2 ± 0.03 µM | IC50 (MCF‐7 ADR cells; Homo sapiens, NCI/ADR-RES, MCF‐7 ADR cells, 72 h, MTT): 7.8 ± 2.2 µM | RF=IC50 (resistant cells)/IC50 (wild‐type cells) (MCF‐7 ADR cells; MCF‐7 ADR vs MCF‐7, 72 h): 39

N.N.[Cl][Pt][Cl] [cisplatin, reference compound]
IC50 ratio related to 3D and 2D experiments [2]: 26 | IC50 [3]: 16.5 ± 2.2 µM | IC50 [4]: 2.1 ± 0.3 µM | IC50 ([1]; MCF‐7 cells): 8.8 ± 0.2 µM | IC50 [5]: 12.1 ± 2.9 µM | IC50 [6]: 2.2 ± 1.4 µM | IC50 ([7]; HEK293 noncancerous cells, MTT): 18.1 ± 3.6 µM | SI (selectivity index) ([7]; IC50 in noncancerous HEK293 cells / average IC50 in cancer cells): 2.2 | IC50 [8]: 61.7 ± 12.1 µM | IC50 [9]: 57.6 ± 3.6 µM

[Fe2Cp2(CO)2(μ‐CO){μ‐CNMe(2‐naphthyl)}]I [[3G]I]
Solubility in water (qualitative) [10]: sparingly soluble

[Fe2Cp2(CO)2(μ‐CO){μ‐CNMe(CH2CHCH2)}]X [[3F]I]
Solubility in water (qualitative) [10]: poorly soluble

[Fe2Cp2(CO)2(μ‐CO){μ‐CNMe(CH2PO3Et2)}]X [[2B]CF3SO3]
IC50±SD (μM) [8]: ineffective | IC50±SD (μM) [9]: ineffective

O=C1C=CC(=O)c2ccccc21 [Naphthoquinone, reference compound]
logP at 30 min [11]: 1.8 ± 0.2

[Fe2Cp2(CO)2(μ‐CO){μ‐CNMe(C6H11)}]X [[2C]Cl]
% starting material (72 h) [12]: 79% | Log P ow ([11]; octanol/water, 21 °C): −1.1±0.08 | % starting material (24 h) [13]: 88%

[Fe2Cp2(CO)2(μ‐CO){μ‐CNMe(CH2CHCH2)}]X [[3F]X]
% starting material (72 h) [12]: 60% | % starting material (24 h) [13]: 84%
